According to patent publication US6555558B2, “Oral dosage self-emulsifying formulations of pyranone protease inhibitors” (priority 2000, dated 2003):

How the values were obtained:
[1] = test system: viral aspartate proteases of a variety of HIV type 1 laboratory strains and clinical isolates; conditions: including those resistant to zidovudine and delavirdine; cited from earlier work
HIV protease = target: T1, HIV protease (Human immunodeficiency virus type 1 group M subtype B, UniProt P04585); conditions: in vitro enzymatic inhibition; cited from earlier work
T1 construct: one of the smallest enzymes yet characterized (consisting of only 99 amino acids)

HIV = conditions: antiviral cell culture; cited from earlier work
[2] = free acid form; pH of from about 6 to about 7; cited from earlier work
[3] = solubility in polyethylene glycols; type: physicochemical; conditions: polyethylene glycols within a defined average molecular weight range
Protocol: Microemulsion phase diagrams were constructed for systems containing various lipophilic phases, hydrophilic phases, and surfactants. After numerous studies it was determined that a number of pyranone protease inhibitors, including tipranavir, were soluble in polyethylene glycols within a defined average molecular weight range, and could be used to replace propylene glycol and ethanol found in conventional microemulsion formulations of such drugs.

[4] = test system: clinical isolates with a wide range of resistance to currently available peptidomimetic protease inhibitors; conditions: 105 viruses with more than tenfold resistance to three or four proteinase inhibitors, average 6.1 protease mutations; cited from earlier work
[5] = test system: HIV-1 variants resistant to the peptidomimetic protease inhibitors; conditions: cited from earlier work
[6] = test system: isolates resistant to indinavir, ritonavir and nelfinavir; saquinavir resistance; conditions: cited from earlier work
[7] = cited from earlier work

CCC[C@@]1(CCc2ccccc2)CC(O)=C([C@H](CC)c2cccc(NS(=O)(=O)c3ccc(C(F)(F)F)cn3)c2)C(=O)O1 [tipranavir]
potency against viral aspartate proteases [1]: excellent potency | Ki (HIV protease): ~0.008 nM | IC90 (HIV): ~100 nM | aqueous solubility [2]: about 10 μg/ml | solubility in polyethylene glycols [3]: soluble | share of resistant viruses susceptible [4]: ninety | activity against HIV-1 variants resistant to peptidomimetic protease inhibitors [5]: highly active | antiviral activity against isolates resistant to indinavir, ritonavir and nelfinavir [6]: retain sustained antiviral activity | Log P [7]: about 6.1
